Results: patent publication US6953578B2, “Materials and methods for detection and treatment of immune system dysfunctions” (University of Florida Research Foundation, Inc., priority 1996, dated 2005)
Marks after values point to notes of the source that are not given here.

Columns and labels:
monocytes [1] = assay: PGE2 production by monocytes, specific ELISA; assay type: cell-based, human
Source text: In addition to the expression of PGS-2, the production of PGE2 by monocytes from these same control and autoimmune individuals was examined.

monocytes [2] = assay: TNFα and IL-1β in supernatants of monocytes cultured 24 hours; assay type: cell-based, human; settings: monocytes cultured in vitro 24 hours
Experimental: The expression of PGS-2 can be induced by several factors including cytokines produced by monocytes such as TNFα and IL-1β. To evaluate the possibility that monocytes of pre-IDD subjects produce large quantities of IL-1 and TNFα which induces PGS-2, the levels of these cytokines were measured in supernatants of monocytes cultured in vitro for 24 hours from pre-IDD and healthy controls. […] The lower levels of these cytokines is consistent with the constitutive production of prostaglandins which suppress the production of both TNFα and IL-1β.

PGS-2 mRNA = PGS-2 mRNA expression in monocytes by RT-PCR; assay type: cell-based, human
Experimental: RT-PCR detection of PGS-2 mRNA in human monocytes. Human peripheral blood is collected in sterile green top 10 ml tubes. Assays are preferably performed with 5 ml or more of blood. The blood is then centrifuged on a ficoll gradient for 30 minutes at 1500 rpm. Monocytes are isolated to >80% purity by adherence for 2 hours to a plastic culture surface. Cells are then cultured overnight in RMPI-1640 plus endotoxin-free fetal calf sera. The cells are harvested after 16 hours of culture by cold Ca^++/Mg^++-free PBS, the cells are counted, and viability is assessed. Monocytes cultured in 10 μg/ml LPS serve as a positive control for each sample tested. The poly mRNA is then harvested from a standard 10^5 monocytes using a kit (Quiagen). The mRNA is then reverse transcribed in a standard reaction mixture. The cDNA is then amplified by PGS-2-specific primers designed by our laboratory using a standard […] for 45 cycles. The PCR product is then run out on agarose gels with known standards and the size confirmed. β-actin is used as an internal control in these reactions. The identity of RT-PCR products were confirmed by size and Southern blotting using a PGS-2-specific labeled internal probe.
Monocytes were examined from ICA+ humans with a high risk of developing IDD, individuals with established SLE and autoimmune thyroid disease, and healthy controls. A portion of the pre-diabetic ICA+ individuals examined are enrolled in an IDD trial where they receive daily subcutaneous insulin as a preventative therapy. Monocytes of humans without autoimmune disease infrequently express PGS-2 mRNA (12%), whereas monocytes from subjects who are at high risk for the development of IDD express PGS-2 at a highly significant frequency (84%, p<0.0001).

NOD mice [3] = assay: Incidence of diabetes in NOD mice treated through drinking water; assay type: in vivo, mouse
Experimental: Blocking the activity of PGS-2 with drugs that reduce PG production can be used to prevent or slow the development of IDD disease. When NOD mice with established, active autoimmune disease are treated through their drinking water with a combination of drugs, including a PGS-1/PGS-2 inhibitor, low dose indomethacin (3 μg/ml), in conjunction with an inducible nitric oxide synthase (iNOS) inhibitor, aminoguanidine, which potentiates the effects of indomethacin, the incidence of diabetes in NOD mice drops by 42% in comparison to control animals and animals treated with either low dose indomethacin or aminoguanidine alone.
Treatment of NOD mice at a time when autoimmunity is in its final stages with high doses (15 μg/ml) of indomethacin alone reduces the incidence of diabetes from 77% to 22%.

monocytes [4] = assay: Monokine production in monocyte culture supernatants with and without NS-398; assay type: cell-based, human; settings: monocytes of healthy controls and pre-diabetic population
Source text: The monocyte production of the monokines IL-1β, TNFα, IL-1RA, and IL-10 in culture supernatants from healthy controls and the pre-diabetic population in the presence and absence of the PGS-2-specific inhibitor, NS-398, have been evaluated. […] It has also been determined that, despite enhanced levels of PGS-2 and PGE2 in diabetic and pre-diabetic individuals, there is no corresponding increase in IL-10. […] Therefore, a further aspect of the subject invention is a method for detecting evidence of autoimmune disease, particularly diabetes, which comprises evaluating monocytes to determine if those monocytes have a reduced response to IL-10 with regard to PGS-2 expression. Such reduced response would be evidence of disease. In accordance with these findings, compounds that inhibit prostaglandin production can be used to modulate the production of anti-inflammatory monokines in order to limit the immune response. The spontaneous expression of PGS-2 and the production of PGE2 by pre-diabetic monocytes may influence their function, limiting their ability to produce monokines that would have a potent effect on limiting the autoimmune response to the β-cells of the islet and therefore would promote the progression to diabetes.

NOD mice [5] = assay: PGE2 production by monocytes of NOD mice after IL-10 administration; assay type: in vivo, mouse; settings: administration of IL-10

## insulin
Monocytes [1]; monocytes of ICA+/PGS-2+ subjects on insulin therapy
  PGE2: 5805 ± 1544 pg/mL
Monocytes [2]
  TNFα and IL-1β levels, insulin-treated versus untreated pre-IDD: no significant differences
PGS-2 mRNA; ICA+ pre-IDD subjects, insulin-treated, Table 6
  % PGS-2 +: 73.6** %
PGS-2 mRNA; ICA+ subjects on daily subcutaneous preventative insulin, Table 2
  % Positive (PGS-2 mRNA): 71%
PGS-2 mRNA; preventative insulin therapy in ICA+ subjects
  PGS-2 mRNA or protein expression: does not appear to affect

## COc1ccc2c(c1)c(CC(=O)O)c(C)n2C(=O)c1ccc(Cl)cc1 [indomethacin]
NOD mice [3]; NOD mice treated at an early stage of disease
  development of IDD: effectively blocks the development of IDD
NOD mice [3]; NOD mice, autoimmunity in final stages, indomethacin alone 15 μg/ml, untreated 77%
  incidence of diabetes: 22%

## CS(=O)(=O)Nc1ccc([N+](=O)[O-])cc1OC1CCCCC1 [NS-398]
Monocytes [4]
  production of IL-1RA: promotes the production
  production of IL-10: promotes the production
Monocytes [1]; monocytes of control and autoimmune individuals, FIG. 1
  production of PGE2: completely blocked
Monocytes [1]; monocytes of individuals at high risk for IDD
  PGS-2 production in vitro: effectively blocks all PGS-2 production

B1: IL-10: monokine that tends to downregulate inflammation and immune responses (protein, UniProt P22301 19-178, looked up)
Interleukin-10: SPGQGTQSENSCTHFPGNLPNMLRDLRDAFSRVKTFFQMKDQLDNLLLKESLLEDFKGYLGCQALSEMIQFYLEEVMPQAENQDPDIKAHVNSLGENLKTLRLRLRRCHRFLPCENKSKAVEQVKNAFNKLQEKGIYKAMSEFDIFINYIEAYMTMKIRN
NOD mice [5]
  PGE2 production by monocytes: does not inhibit PGE2 production
